Our source for the IC50 and viability, T/C values is PubChem BioAssay AID1963982 (Molecular Pharmacology Branch, DTP, NCI, 2024).

The test system of this test is 313798-341-R-J2-PDC spheroids, viability. The test can be described thus: Anticancer human tumor 313798-341-R-J2-PDC patient-derived cervical squamous cell carcinoma cell line growth inhibition [PI3K]. As to conditions: spheroids with HUVEC and MSC; for viability, T/C: stronger effect = lower value. In short, it runs like this: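 Multi-cell spheroids combine tumor cells with HUVEC and human MSCs, treated with targeted agents alone or with inavolisib, alpelisib, duvelisib or copanlisib. Concentrations fall in half-log steps from at or near clinical Cmax, or from 10 microM where Cmax is unknown; viability read-out.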

Where [1] appears, read: curve of first compound, second compound 0.0316 µM.
Setting [2] is: curve of first compound, second compound 0.1 µM.
Setting [3] is: curve of first compound, second compound 0.316 µM.
Setting [4] is: curve of first compound, second compound 1 µM.
Setting [5] is: second compound 0.0316 µM, first compound 0.0316 µM.
Setting [6] is: second compound 0.0316 µM, first compound 0.1 µM.
[7] abbreviates: second compound 0.0316 µM, first compound 0.316 µM.
Setting [8] is: second compound 0.0316 µM, first compound 1 µM.
[9] abbreviates: second compound 0.0316 µM, first compound 3.16 µM.
Where [10] appears, read: second compound 0.0316 µM, first compound 10 µM.
Where [11] appears, read: second compound 0.1 µM, first compound 0.0316 µM.
Setting [12] is: second compound 0.1 µM, first compound 0.1 µM.
Where [13] appears, read: second compound 0.1 µM, first compound 0.316 µM.
The mark [14] stands for this setting: second compound 0.1 µM, first compound 1 µM.
Where [15] appears, read: second compound 0.1 µM, first compound 3.16 µM.
[16] abbreviates: second compound 0.1 µM, first compound 10 µM.
Where [17] appears, read: second compound 0.316 µM, first compound 0.0316 µM.
Setting [18] is: second compound 0.316 µM, first compound 0.1 µM.
The mark [19] stands for this setting: second compound 0.316 µM, first compound 0.316 µM.
Setting [20] is: second compound 0.316 µM, first compound 1 µM.
[21] abbreviates: second compound 0.316 µM, first compound 3.16 µM.
The mark [22] stands for this setting: second compound 0.316 µM, first compound 10 µM.
Setting [23] is: second compound 1 µM, first compound 0.0316 µM.
Setting [24] is: second compound 1 µM, first compound 0.1 µM.
Where [25] appears, read: second compound 1 µM, first compound 0.316 µM.
Setting [26] is: second compound 1 µM, first compound 1 µM.
The mark [27] stands for this setting: second compound 1 µM, first compound 3.16 µM.
Setting [28] is: second compound 1 µM, first compound 10 µM.

By pIC50 is commonly meant −log10 of the IC50, conventionally taken in molar units. Broadly, the viability, T/C is the result in the treated group divided by that in the control group, in per cent. Broadly, the IC50 is the concentration that inhibits the measured activity by half.

pIC50: −log10 of the molar value. Several values for one entry are separate records, joined by “and”; a condition that tells them apart may be missing. Equal values may be shown once.
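Also: spheroids exposed to compounds for seven days.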
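For viability, T/C in this document: 100% = DMSO vehicle control viability.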

For `C[C@@H](NC(=O)c1ncnc(N)c1Cl)c1ncc(C(=O)Nc2cc(C(F)(F)F)c(Cl)cn2)s1` + Cc1nc(NC(=O)N2CCCC2C(N)=O)sc1-c1ccnc(C(C)(C)C(F)(F)F)c1, the pIC50 was under 5.00 under setting [1]; under 5.00 under setting [2]; under 5.00 under setting [3]; under 5.00 under setting [4]; under 5.00 (curve of first compound, second compound 3.16 µM); over 7.50 (curve of first compound, second compound 10 µM). The viability, T/C was 106% under setting [5]; 93.3% under setting [6]; 103% under setting [7]; 101% under setting [8]; 108% under setting [9]; 107% under setting [10]. Moreover, the viability, T/C under setting [11] is 104%; the viability, T/C under setting [12] was 112%; the viability, T/C under setting [13] was 92.8%; the viability, T/C under setting [14] is 111%; the viability, T/C under setting [15] was 115%; the viability, T/C under setting [16] was 113%. Moreover, the viability, T/C reads like this: under setting [17], 111%; under setting [18], 121%; under setting [19], 104%; under setting [20], 105%; under setting [21], 110%; under setting [22], 109%. Also, the viability, T/C is 104% under setting [23]; 92% under setting [24]; 89.7% under setting [25]; 101% under setting [26]; 98.6% under setting [27]; 88% under setting [28]. Further, the viability, T/C (second compound 3.16 µM, first compound 0.0316 µM) is 63.7%; the viability, T/C (second compound 3.16 µM, first compound 0.1 µM) is 60%; the viability, T/C (second compound 3.16 µM, first compound 0.316 µM) was 69.2%; the viability, T/C (second compound 3.16 µM, first compound 1 µM) is 71.1%; the viability, T/C (second compound 3.16 µM, first compound 3.16 µM) is 64.9%; the viability, T/C (second compound 3.16 µM, first compound 10 µM) is 58.4%. Besides, the viability, T/C is 31.8% (second compound 10 µM, first compound 0.0316 µM); 35.1% (second compound 10 µM, first compound 0.1 µM); 38.2% (second compound 10 µM, first compound 0.316 µM); 33.4% (second compound 10 µM, first compound 1 µM); 39.6% (second compound 10 µM, first compound 3.16 µM); 39.5% (second compound 10 µM, first compound 10 µM).

For `C#Cc1c(F)ccc2cc(O)cc(-c3ncc4c(N5CC6CCC(C5)N6)nc(OCC56CCCN5CC(F)C6)nc4c3F)c12` (stereo not given), the viability, T/C (compound 0.0316 µM) was 102% [middle of 4 runs]; the viability, T/C (compound 0.1 µM) was 105% [middle of 4 runs]; the viability, T/C (compound 0.316 µM) is 108% [middle of 4 runs]; the viability, T/C (compound 1 µM) is 98.5% [middle of 4 runs]; the viability, T/C (compound 3.16 µM) was 106% [middle of 4 runs]; the viability, T/C (compound 10 µM) is 95.2% [middle of 4 runs]. Besides, the pIC50 (curve of compound) is under 5.00.

On to `Cc1nc(NC(=O)N2CCCC2C(N)=O)sc1-c1ccnc(C(C)(C)C(F)(F)F)c1` (stereo not given), for which the viability, T/C is 99.9% [middle of 8 runs] (compound 0.0316 µM); 97.5% [middle of 8 runs] (compound 0.1 µM); 102% [middle of 8 runs] (compound 0.316 µM); 90.6% [middle of 8 runs] (compound 1 µM); 59.9% [middle of 8 runs] (compound 3.16 µM); 36.2% [middle of 8 runs] (compound 10 µM). Moreover, for the setting “compound alone, run of 04/24/2023”, the IC50 is 4.93 µM [middle of 8 runs].

Regarding `CC(C)NCC(C(=O)N1CCN(c2ncnc3c2C(C)CC3O)CC1)c1ccc(Cl)cc1` (stereo not given) + CC(Nc1ccc2c(c1)OCCn1cc(N3C(=O)OCC3C(F)F)nc1-2)C(N)=O, the negative-log IC50 (pIC50) (curve of first compound, second compound 0.00316 µM) is 5.65; the pIC50 (curve of first compound, second compound 0.01 µM) is 5.73; the pIC50 under setting [1] was 5.62; the pIC50 under setting [2] was 5.72; the negative logarithm of the IC50 (pIC50) under setting [3] is 6.09; the pIC50 under setting [4] was 7.13. Further, the viability, T/C is, setting by setting: (second compound 0.00316 µM, first compound 0.0316 µM) 107%; (second compound 0.00316 µM, first compound 0.1 µM) 94.9%; (second compound 0.00316 µM, first compound 0.316 µM) 81%; (second compound 0.00316 µM, first compound 1 µM) 68.6%; (second compound 0.00316 µM, first compound 3.16 µM) 40.5%; (second compound 0.00316 µM, first compound 10 µM) 25.9%. For the same compound, the viability, T/C by setting is: (second compound 0.01 µM, first compound 0.0316 µM) 107%; (second compound 0.01 µM, first compound 0.1 µM) 103%; (second compound 0.01 µM, first compound 0.316 µM) 93.5%; (second compound 0.01 µM, first compound 1 µM) 61.1%; (second compound 0.01 µM, first compound 3.16 µM) 41.1%; (second compound 0.01 µM, first compound 10 µM) 30.2%. Also, the viability, T/C was 106% under setting [5]; 92.5% under setting [6]; 82.2% under setting [7]; 69.5% under setting [8]; 41.3% under setting [9]; 25.6% under setting [10]. For the same compound, the viability, T/C is 121% under setting [11]; 99.6% under setting [12]; 80.9% under setting [13]; 62.5% under setting [14]; 39.5% under setting [15]; 27.2% under setting [16]. Moreover, the viability, T/C is 84.6% under setting [17]; 84.2% under setting [18]; 62.3% under setting [19]; 46.7% under setting [20]; 35.4% under setting [21]; 26% under setting [22]. In addition, the viability, T/C runs as follows: under setting [23], 53%; under setting [24], 50.2%; under setting [25], 42.1%; under setting [26], 38.2%; under setting [27], 30.5%; under setting [28], 25.5%.

Consider `CC(=O)c1c(C)c2cnc(Nc3ccc(N4CCNCC4)cn3)nc2n(C2CCCC2)c1=O`, for which the viability, T/C reads like this: (compound 0.000316 µM) 105% (2×) and 108%; (compound 0.001 µM) 105% (2×) and 110%; (compound 0.00316 µM) 109% and 99.2% and 92.1%; (compound 0.01 µM) 101% and 103% and 118%; (compound 0.0316 µM) 101% (2×) and 97.3%; (compound 0.1 µM) 94.9% and 101% and 110%. Moreover, where the note is “curve of compound”, the pIC50 was under 7.00.
